Laboratory results as given in ChEMBL document CHEMBL3797112, “Flavonoid profile and antileukemic activity of Coreopsis lanceolata flowers” (Bioorg Med Chem Lett, 2016).
Active and inactive are the calls of the source. The calls are words filed in the database; no cut-off is given here.

Key:
HL-60 [1] = experiment: (§1) Antiproliferative activity against human HL60 cells assessed as cell survival at 25 uM incubated for 48 hrs by CCK8 assay; assay type: functional
[2] = Retention time of the compound by UPLC-ESI-MS method; assay type: physicochemical
[3] = as §1; assay type: functional; conditions: HL-60, 48 h, read-out: Survival
HL-60 [4] = experiment: Induction of apoptosis in human HL60 cells assessed as induction of morphological changes at 25 uM incubated for 48 hrs by Hoechst-33342 staining assay; assay type: functional, cell-based
HL-60 [5] = experiment: Induction of apoptosis in human HL60 cells at 25 uM incubated for 48 hrs by Giemsa staining assay; assay type: functional, cell-based

| SMILES | Activity (HL-60 [1]) | Retention_time [2] | viability at 25 µM [3] | Activity (HL-60 [4]) | Activity (HL-60 [5]) |
| --- | --- | --- | --- | --- | --- |
| COc1c(O)ccc(C(=O)/C=C/c2ccc(O)c(O)c2)c1O | inactive | 30.97 min |  |  |  |
| COc1c(O)ccc2c1O[C@H](c1ccc(O)c(O)c1)CC2=O | inactive | 18.52 min |  |  |  |
| CC(=O)O[C@H]1C(=O)[C@@]2(C)[C@H]([C@H](OC(=O)c3ccccc3)[C@]3(O)C[C@H](OC(=O)[C@H](O)[C@@H](NC(=O)c4ccccc4)c4ccccc4)C(C)=C1C3(C)C)[C@]1(OC(C)=O)CO[C@@H]1C[C@@H]2O [PACLITAXEL] |  |  | 18.9% |  |  |
| COc1c(O[C@@H]2O[C@H](CO)[C@@H](O)[C@H](O)[C@H]2O)ccc2c1O/C(=C\c1ccc(O)c(O)c1)C2=O | inactive | 16.07 min |  |  |  |
| COc1c(O)ccc2c1O/C(=C\c1ccc(O)c(O)c1)C2=O | inactive | 25.04 min |  |  |  |
| O=C(/C=C/c1ccc(O)c(O)c1)c1ccc(O)c(O)c1O | inactive | 20.14 min |  |  |  |
| COc1ccc(/C=C/C(=O)c2ccc(O)c(OC)c2O)cc1O |  | 41.24 min | 23.8% | Active | Active |
